# Data taken from US20070191490A1, “Withacnistin compounds for treatment of cancer” (priority 2006, published 2007).
# How the values were obtained:
# STAT3 = experiment: Total STAT3 levels (STAT3 immunoprecipitation / immunoblot); assay type: cell-based, human; conditions: A549 cells
# Description: STAT3 immunoprecipitation. A549 cells were treated for 4 hour with vehicle or the withacnistin mixture, then lysed in 150 mM HEPES, pH 7.5, 150 mM NaCl, 1 mM EDTA, 0.5% NP-40, 10% glycerol, 5 mM NaF, 1 mM DTT, 1 mM PMSF, 2 mM sodium orthovanadate, and 5 μg/ml leupeptin. Sample lysates were collected and cleared, then 500 μg of lysate was immunoprecipitated with 50 ng STAT3 antibody overnight at 4° C., then rocked with 25 μl Protein A/G PLUS agarose (Santa Cruz Biotechnology) for 1 hour at 4° C. Samples were washed four times with lysis buffer, then boiled in 2×SDS-PAGE sample buffer and run on 10% SDS-PAGE gel. Protein was transferred to nitrocellulose then blotted as above for both phospho-specific STAT3 and STAT3.
# As further support of the specific antiphosphotyrosine STAT3, but not antiphosphotyrosine JAK2, activity of withacnistin, A549 cells, as well as two breast carcinoma cell lines (MDA-MB-435 and MDA-MB-468) that also express constitutively activated JAK2 and STAT3, were treated with the withacnistin mixture at various concentrations, and determined IC50 values of inhibition of STAT3 and JAK2 activation. […] In all three cell lines, JAK2 activation was not inhibited at withacnistin concentrations as high as 10 μM. […] Thus, in all three cell lines, withacnistin (Wit) inhibits specifically STAT3 but not JAK2 activation and Cuc A inhibits JAK2 but not STAT3 activation whereas Cuc I inhibits the activation of both STAT3 and JAK2.
# A549 cells [1] = experiment: Trypan blue exclusion assay (tumor cell death); assay type: cell-based, human; conditions: 10 μM, 24 h
# Description: In vitro cellular proliferation and TUNEL assays. Subconfluent A549, MDA-MB-435, MDA-MB-453, MDAMB-468, v-Src transformed NIH 3T3 (v-Src/3T3), H-Ras transformed NIH 3T3 (H-Ras/3T3), and vector NIH 3T3 cells were grown in the presence of 10 μM cucurbitacin A, cucurbitacin I, withacnistin mixture, or DMSO vehicle control. After 24 hours, cells were harvested by trypsinization and counted via trypan blue exclusion assay to determine cellular viability. In all, 75,000-150,000 cells (depending on cell line) were then spun onto glass slides using a Cytospin 3 centrifuge (Thermo Shandon Inc., Pittsburgh, Pa., USA). […] TUNELpositive nuclei were counted and compared to DAPI-stained nuclei to determine the percent induction of apoptosis by the different cucurbitacin compounds. Statistical significance between control and treated tumors were evaluated by using Student's t-test.
# The next objective was to determine whether the ability of the cucurbitacins and withacnistin to induce apoptosis is dependent on suppression of PJAK2 and/or P-STAT3 levels. To this end, A549 cells were treated with vehicle control, or cucurbitacins (10 μM), or the withacnistin mixture (10 μM) for 24 h, harvested the cells, and determined tumor cell death (trypan blue exclusion) and apoptosis (TUNEL) as described under Materials and methods.
# A549 cells [2] = experiment: TUNEL apoptosis assay, A549; assay type: cell-based, human; conditions: for apoptosis (TUNEL): 10 μM, 24 h
# Description: (§1) In vitro cellular proliferation and TUNEL assays. Subconfluent A549, MDA-MB-435, MDA-MB-453, MDAMB-468, v-Src transformed NIH 3T3 (v-Src/3T3), H-Ras transformed NIH 3T3 (H-Ras/3T3), and vector NIH 3T3 cells were grown in the presence of 10 μM cucurbitacin A, cucurbitacin I, withacnistin mixture, or DMSO vehicle control. After 24 hours, cells were harvested by trypsinization and counted via trypan blue exclusion assay to determine cellular viability. In all, 75,000-150,000 cells (depending on cell line) were then spun onto glass slides using a Cytospin 3 centrifuge (Thermo Shandon Inc., Pittsburgh, Pa., USA). After fixing cells to the slides with 4% paraformaldehyde in PBS, pH 7.5, for 1 h at room temperature, cells were labeled for apoptotic DNA strand breaks by TUNEL reaction using an in situ cell death detection kit (Roche Applied Science, Indianapolis, Ind., USA) according to the manufacturer's instructions, then mounted in Vectashield mounting medium (Vector Laboratories, Burlingame, Calif., USA) containing 4′,6-diamidino-2-phenylindole (DAPI) to counterstain DNA. Fluorescein-labeled DNA strand breaks (TUNEL-positive cells) were then visualized using a fluorescent microscope (Leica Microsystems Inc., Bannockburn, Ill., USA) and pictures taken with a digital camera (Diagnostic Instruments, Inc., Sterling Heights, Mich., USA). TUNELpositive nuclei were counted and compared to DAPI-stained nuclei to determine the percent induction of apoptosis by the different cucurbitacin compounds. Statistical significance between control and treated tumors were evaluated by using Student's t-test.
# The next objective was to determine whether the ability of the cucurbitacins and withacnistin to induce apoptosis is dependent on suppression of PJAK2 and/or P-STAT3 levels. To this end, A549 cells were treated with vehicle control, or cucurbitacins (10 μM), or the withacnistin mixture (10 μM) for 24 h, harvested the cells, and determined tumor cell death (trypan blue exclusion) and apoptosis (TUNEL) as described under Materials and methods. […]
# A549 tumors = experiment: Antitumor activity in nude mouse xenograft model, A549; assay type: in vivo; conditions: nude mice, 1 mg/kg/day i.p., Wit = withacnistin mixture
# Description: (§2) Antitumor activity in the nude mouse tumor xenograft model. Nude mice (Charles River, Wilmington, Mass., USA) were maintained in accordance with the Institutional Animal Care and Use Committee (IACUC) procedures and guidelines. A549 cells were harvested, resuspended in PBS, and injected subcutaneously (s.c.) into the right and left flank (1×10^7 cells per flank) of 8-week-old female nude mice as reported previously (Blaskovich, M. A. et al. Cancer Res., 2003, 63:1270-1279). When tumors reached about 150 mm^3, animals were randomized (four animals per group; two tumors per animal) and dosed intraperitoneally (i.p.) either with cucurbitacin analogs (0.5 or 1 mg/kg/day, i.p.) in 20% DMSO in water or with an equal volume of vehicle control. The tumor volumes were determined by measuring the length (l) and the width (w) and calculating the volume (V=lw^2/2) as described previously (Blaskovich, M. A. et al. Cancer Res., 2003, 63:1270-1279). Statistical significance between control and treated animals were evaluated by using Student's t-test.
# (§3) To determine the ability of the cucurbitacin analogs and withacnistin to inhibit tumor growth in vivo, the antitumor activity of the cucurbitacin analogs and withacnistin against both A549 and v-Src/3T3 tumors in a nude mouse xenograft model was evaluated. When the tumors became palpable (at volumes of approximately 100-150 mm^3), the mice were treated either with vehicle control or 1 mg/kg/day of the cucurbitacins or the withacnistin mixture. Tumor volumes were monitored by caliper measurement as previously described (Blaskovich, M. A. et al. Cancer Res., 2003, 63:1270-1279) and under Materials and Methods.
# v-Src/3T3 tumors = experiment: Antitumor activity in nude mouse xenograft model, v-Src/3T3; assay type: in vivo; conditions: v-Src/3T3 xenograft, nude mice, 1 mg/kg/day i.p.; Wit = withacnistin mixture
# Description: as §2, §3
# Withacnistin inhibited 57% of tumor growth while Cuc I, B, and E inhibited 45, 40, and 42% of tumor growth, respectively (FIG. 3 and Table 2).
# vector/3T3 cells = experiment: TUNEL apoptosis assay, vector NIH 3T3; assay type: cell-based, murine; conditions: 10 μM withacnistin mixture, 24 hours
# Description: as §1, with “Fluorescein-labeled DNA strand breaks (TUNEL-positive cells) were then visualized using a fluorescent microscope (Leica Microsystems Inc., Bannockburn, Ill., USA) and pictures taken with a digital camera (Diagnostic Instruments, Inc., Sterling Heights, Mich., USA).” left out, “t-test. […]” for “t-test.”
SMILES,"total STAT3 levels (STAT3; 10 μM, 4 hours)",tumor cell death (trypan blue exclusion) (A549 cells [1]),apoptosis (TUNEL) (A549 cells [2]),% Inhibition of tumor growth (A549 tumors),% Inhibition of tumor growth (v-Src/3T3 tumors),"total STAT3 levels (STAT3; by 24 hours, data not shown)","increase of percentage of apoptotic tumor cells compared to vehicle-treated control (A549 cells [2]; 10 μM withacnistin mixture, 24 hours)",apoptosis (TUNEL-positive cells) (vector/3T3 cells),fold increase of apoptosis over control (vector/3T3 cells)
"CC(=O)OC(C)(C)/C=C/C(=O)[C@](C)(O)[C@H]1[C@H](O)C[C@@]2(C)[C@@H]3CC=C4[C@@H](C[C@H](O)C(=O)C4(C)C)[C@]3(CO)C(=O)C[C@]12C [Cuc A, cucurbitacin A]",does not affect,11%,5%,11.1%,16%,–,–,–,–
CC(=O)OC[C@]12CC[C@H]3[C@@H](C[C@H]4O[C@]45[C@@H](O)C=CC(=O)[C@]35C)[C@@H]1CC[C@@H]2[C@H](C)[C@H]1CC(C)=C(C)C(=O)O1 [withacnistin],without affecting,60%,28%,73.1%,57%,suppressed,27.4 fold,7.3±3.9%,4.2 fold
"CC(C)(O)/C=C/C(=O)[C@](C)(O)[C@H]1[C@H](O)C[C@@]2(C)[C@@H]3CC=C4[C@@H](C=C(O)C(=O)C4(C)C)[C@]3(C)C(=O)C[C@]12C [Cuc I, cucurbitacin I]",does not affect,–,–,55.4%,45%,–,–,–,–
